Results: patent publication US12257334B2, “Oral care compositions” (Colgate-Palmolive Company, priority 2015, dated 2025)
Each block holds one compound with its values, some of them ahead of it.

Legend:
[1] = Stabilization with multi-charged species: redissolving the DV-CHX precipitate; assay type: physicochemical; conditions: with significant stirring time
From the text: Stabilization with Multi-Charged Species: The addition of DV to a solution of CHX causes an immediate precipitation. However, the addition of low levels of surfactants or multi-charged compounds brings both DV and CHX back into solution. The table below lists multiple compounds that help to redissolve the DV-CHX, and what we have found as their lowest effective levels. These solutions are stable from pH 4.9-7. Addition of citric acid to lower the pH to <4.9 causes significant precipitation.

[2] = system: mixed species inoculum culture containing: Lactobacillus casei, Streptococcus oralis, Actinomyces viscosus, Veillonella parvula & Fusobacterium nucleatum; assay type: cell-based
Method: Bacterial kill: A 20-second short interval kill test (SIKT) measures the efficacy of various treatment solutions in killing oral pathogens. […] A mixed species inoculum culture containing: Lactobacillus casei, Streptococcus oralis, Actinomyces viscosus, Veillonella parvula & Fusobacterium nucleatum at an optical density of 0.5 @ 610nm is centrifuged. The supernatant is then aspirated off and the remaining pellicle re-suspended in sterile phosphate buffered saline (PBS). 100 ul of this solution is then treated with 100 ul of test sample for 30 or 60 seconds. Immediately following treatment, the exposure is neutralized by adding 1.3 ml of sterile D/E neutralizing broth. The neutralizing broth is then rinsed off by centrifugation and re-suspension in PBS. 50 ul samples are then transferred in triplicate to a 96-well microplate. The fluorescent dyes are then prepared per the manufacturer's directions and added to the samples. The fluorescence is then measured in a fluorescent plate reader. Data from this assay are presented as a percentage of bacterial remaining viable relative to a control sample treated with PBS.

[3] = aqueous solution, no net charge; cited from earlier work

Lowest effective level ([1]; added to solution of 0.12% CHX and 1.025 DV (w/w by actives)): 0.3% for 0.12% CHX | Lowest effective level ([1]; added to solution of 0.2% CHX and 1.025 DV (w/w by actives)): 0.3% for 0.2% CHX
Compound: C[N+](C)(C)CC(=O)O [Betaine]

Compound: CCO [Dead, ethanol]
% viability [2]: 36.3%

Compound: NCCCC[C@H](N)C(=O)O [lysine]
isoelectric point [3]: 9.7 pH
